Results taken from publication PMC10006169, “A phase I trial of LXS196, a protein kinase C (PKC) inhibitor, for metastatic uveal melanoma” (British Journal of Cancer, 2023).
Where two headings read alike, the source gives them in different places.

Experiment: Plasma pharmacokinetics (LC-MS/MS)
Assay type: in vivo, human
Details: human, plasma, oral; for Tmax: read-out: Tmax, Median (Min, max)
Description: In the dose escalation part of the study, PK samples were collected at various pre- and post-dose time points on C1D1, D2, D3, D15 and D16. Drug concentrations were assessed using a validated liquid chromatography-tandem mass spectrometry assay.

**Q.** With `CC1(N)CCN(c2cccnc2NC(=O)c2nc(-c3ncccc3C(F)(F)F)cnc2N)CC1` [LXS196] as the molecule, how does the AUC(0-t) (300 mg, C1D1, 300 mg BID, n=17, read-out: AUC0-t, Geo-mean) read?
**A.** 18700 ng·h/mL

**Q.** And the AUC(0-t) (300 mg, C1D1, 300 mg BID, n=17, read-out: AUC0-t, Mean (SD))?
**A.** 20500 ng·h/mL

**Q.** What about the AUC(0-t) (300 mg, C1D1, 300 mg BID, n=17, read-out: AUC0-t, Median (Min, max)) of the same molecule?
**A.** 17000 ng·h/mL

**Q.** And the Cmax (300 mg, C1D1, 300 mg BID, n=17, read-out: Cmax, Geo-mean)?
**A.** 3850 ng/mL

**Q.** What about the Cmax (300 mg, C1D1, 300 mg BID, n=17, read-out: Cmax, Mean (SD)) of the same molecule?
**A.** 4100 ng/mL

**Q.** What about the Cmax (300 mg, C1D1, 300 mg BID, n=17, read-out: Cmax, Median (Min, max)) of the same molecule?
**A.** 4210 ng/mL

**Q.** What about the Tmax (300 mg, C1D1, 300 mg BID, n=17) of the same molecule?
**A.** 1 h

**Q.** What about the AUC(0-t) (300 mg, C1D1, 300 mg QD, n=15, read-out: AUC0-t, Geo-mean) of the same molecule?
**A.** 34000 ng·h/mL

**Q.** What about the AUC(0-t) (300 mg, C1D1, 300 mg QD, n=15, read-out: AUC0-t, Mean (SD)) of the same molecule?
**A.** 40200 ng·h/mL

**Q.** And the AUC(0-t) (300 mg, C1D1, 300 mg QD, n=15, read-out: AUC0-t, Median (Min, max))?
**A.** 34400 ng·h/mL

**Q.** What about the AUC(0-inf) (300 mg, C1D1, 300 mg QD, n=15, read-out: AUCinf, Geo-mean) of the same molecule?
**A.** 42100 ng·h/mL

**Q.** And the AUC(0-inf) (300 mg, C1D1, 300 mg QD, n=15, read-out: AUCinf, Mean (SD))?
**A.** 51300 ng·h/mL

**Q.** What about the AUC(0-inf) (300 mg, C1D1, 300 mg QD, n=15, read-out: AUCinf, Median (Min, max)) of the same molecule?
**A.** 43100 ng·h/mL

**Q.** What about the Cmax (300 mg, C1D1, 300 mg QD, n=15, read-out: Cmax, Geo-mean) of the same molecule?
**A.** 4940 ng/mL

**Q.** What about the Cmax (300 mg, C1D1, 300 mg QD, n=15, read-out: Cmax, Mean (SD)) of the same molecule?
**A.** 5580 ng/mL

**Q.** And the Cmax (300 mg, C1D1, 300 mg QD, n=15, read-out: Cmax, Median (Min, max))?
**A.** 5370 ng/mL

**Q.** And the half-life (300 mg, C1D1, 300 mg QD, n=15, read-out: T1/2, Geo-mean (converted))?
**A.** 10.7 h

**Q.** What about the half-life (300 mg, C1D1, 300 mg QD, n=15, read-out: T1/2, Mean (SD) (converted)) of the same molecule?
**A.** 10.8 h

**Q.** What about the half-life (300 mg, C1D1, 300 mg QD, n=15, read-out: T1/2, Median (Min, max) (converted)) of the same molecule?
**A.** 11.1 h

**Q.** And the Tmax (300 mg, C1D1, 300 mg QD, n=15)?
**A.** 1 h

**Q.** And the AUC(0-t) (300 mg, C1D15, 300 mg BID, n=12, read-out: AUC0-t, Geo-mean)?
**A.** 18300 ng·h/mL

**Q.** And the AUC(0-t) (300 mg, C1D15, 300 mg BID, n=12, read-out: AUC0-t, Mean (SD))?
**A.** 19100 ng·h/mL

**Q.** What about the AUC(0-t) (300 mg, C1D15, 300 mg BID, n=12, read-out: AUC0-t, Median (Min, max)) of the same molecule?
**A.** 17400 ng·h/mL

**Q.** What about the Cmax (300 mg, C1D15, 300 mg BID, n=17, read-out: Cmax, Geo-mean) of the same molecule?
**A.** 2800 ng/mL

**Q.** And the Cmax (300 mg, C1D15, 300 mg BID, n=17, read-out: Cmax, Mean (SD))?
**A.** 2860 ng/mL

**Q.** And the Cmax (300 mg, C1D15, 300 mg BID, n=17, read-out: Cmax, Median (Min, max))?
**A.** 2880 ng/mL

**Q.** What about the Tmax (300 mg, C1D15, 300 mg BID, n=17) of the same molecule?
**A.** 0.567 h

**Q.** And the AUC(0-t) (300 mg, C1D15, 300 mg QD, n=13, read-out: AUC0-t, Geo-mean)?
**A.** 26500 ng·h/mL

**Q.** What about the AUC(0-t) (300 mg, C1D15, 300 mg QD, n=13, read-out: AUC0-t, Mean (SD)) of the same molecule?
**A.** 30500 ng·h/mL

**Q.** What about the AUC(0-t) (300 mg, C1D15, 300 mg QD, n=13, read-out: AUC0-t, Median (Min, max)) of the same molecule?
**A.** 27900 ng·h/mL

**Q.** What about the Cmax (300 mg, C1D15, 300 mg QD, n=14, read-out: Cmax, Geo-mean) of the same molecule?
**A.** 3500 ng/mL

**Q.** And the Cmax (300 mg, C1D15, 300 mg QD, n=14, read-out: Cmax, Mean (SD))?
**A.** 3860 ng/mL

**Q.** What about the Cmax (300 mg, C1D15, 300 mg QD, n=14, read-out: Cmax, Median (Min, max)) of the same molecule?
**A.** 3310 ng/mL

**Q.** What about the concentration at 15 day (300 mg, C1D15, 300 mg QD, n=14, read-out: Cmin, Median (Min, max)) of the same molecule?
**A.** 326 ng/mL

**Q.** And the Tmax (300 mg, C1D15, 300 mg QD, n=14)?
**A.** 1 h

**Q.** What about the AUC(0-t) (400 mg, C1D1, 400 mg BID, n=5, read-out: AUC0-t, Geo-mean) of the same molecule?
**A.** 16800 ng·h/mL

**Q.** And the AUC(0-t) (400 mg, C1D1, 400 mg BID, n=5, read-out: AUC0-t, Mean (SD))?
**A.** 18100 ng·h/mL

**Q.** What about the AUC(0-t) (400 mg, C1D1, 400 mg BID, n=5, read-out: AUC0-t, Median (Min, max)) of the same molecule?
**A.** 18200 ng·h/mL

**Q.** What about the AUC(0-inf) (400 mg, C1D1, 400 mg BID, n=5, read-out: AUCinf, Geo-mean) of the same molecule?
**A.** 28400 ng·h/mL

**Q.** What about the AUC(0-inf) (400 mg, C1D1, 400 mg BID, n=5, read-out: AUCinf, Mean (SD)) of the same molecule?
**A.** 30400 ng·h/mL

**Q.** And the AUC(0-inf) (400 mg, C1D1, 400 mg BID, n=5, read-out: AUCinf, Median (Min, max))?
**A.** 31700 ng·h/mL

**Q.** What about the Cmax (400 mg, C1D1, 400 mg BID, n=5, read-out: Cmax, Geo-mean) of the same molecule?
**A.** 3730 ng/mL

**Q.** What about the Cmax (400 mg, C1D1, 400 mg BID, n=5, read-out: Cmax, Mean (SD)) of the same molecule?
**A.** 4350 ng/mL

**Q.** What about the Cmax (400 mg, C1D1, 400 mg BID, n=5, read-out: Cmax, Median (Min, max)) of the same molecule?
**A.** 3850 ng/mL

**Q.** What about the half-life (400 mg, C1D1, 400 mg BID, n=5, read-out: T1/2, Geo-mean (converted)) of the same molecule?
**A.** 13.5 h

**Q.** And the half-life (400 mg, C1D1, 400 mg BID, n=5, read-out: T1/2, Mean (SD) (converted))?
**A.** 13.8 h

**Q.** And the half-life (400 mg, C1D1, 400 mg BID, n=5, read-out: T1/2, Median (Min, max) (converted))?
**A.** 14.5 h

**Q.** What about the Tmax (400 mg, C1D1, 400 mg BID, n=5) of the same molecule?
**A.** 1.03 h

**Q.** And the AUC(0-t) (400 mg, C1D15, 400 mg BID, n=4, read-out: AUC0-t, Geo-mean)?
**A.** 15700 ng·h/mL

**Q.** And the AUC(0-t) (400 mg, C1D15, 400 mg BID, n=4, read-out: AUC0-t, Mean (SD))?
**A.** 15900 ng·h/mL

**Q.** What about the AUC(0-t) (400 mg, C1D15, 400 mg BID, n=4, read-out: AUC0-t, Median (Min, max)) of the same molecule?
**A.** 16000 ng·h/mL

**Q.** What about the Cmax (400 mg, C1D15, 400 mg BID, n=4, read-out: Cmax, Geo-mean) of the same molecule?
**A.** 2070 ng/mL

**Q.** What about the Cmax (400 mg, C1D15, 400 mg BID, n=4, read-out: Cmax, Mean (SD)) of the same molecule?
**A.** 2100 ng/mL

**Q.** What about the Cmax (400 mg, C1D15, 400 mg BID, n=4, read-out: Cmax, Median (Min, max)) of the same molecule?
**A.** 2060 ng/mL

**Q.** And the Tmax (400 mg, C1D15, 400 mg BID, n=4)?
**A.** 0.842 h

**Q.** And the AUC(0-t) (500 mg, C1D1, 500 mg QD, n=10, read-out: AUC0-t, Geo-mean)?
**A.** 48000 ng·h/mL

**Q.** And the AUC(0-t) (500 mg, C1D1, 500 mg QD, n=10, read-out: AUC0-t, Mean (SD))?
**A.** 50700 ng·h/mL
